Test results as given in PubChem BioAssay (NCI).
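Dose response: 5 concentrations. Exposure: 48 h. Format: 96-well plates. Endpoint: linear interpolation; highest concentration if not reached. The concentration for 50% growth inhibition is given as GI50. TGI: concentration producing complete growth inhibition.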

What was measured:
Assay in all cases: growth of human tumour cells (NCI), 48 h
[1] = system: CCRF-CEM leukemia
[2] = system: OVCAR-4 ovarian
[3] = system: SF-268 CNS
[4] = system: NCI-H23 lung
[5] = system: DU-145 prostate
[6] = system: ACHN renal
[7] = system: EKVX NSCLC
[8] = system: T-47D breast
[9] = system: OVCAR-3 ovarian
[10] = system: MDA-MB-435

Row | Structure (SMILES) | TGI [1] [µM] | TGI [2] [µM] | TGI [3] [µM] | TGI [4] [µM] | TGI [5] [µM] | TGI [6] [µM] | TGI [7] [µM] | TGI [8] [µM] | TGI [9] [µM] | TGI [10] [µM] | GI50 [1] [µM] | GI50 [2] [µM] | GI50 [3] [µM] | GI50 [4] [µM] | GI50 [5] [µM] | GI50 [6] [µM] | GI50 [7] [µM] | GI50 [8] [µM] | GI50 [9] [µM] | GI50 [10] [µM]
1 | O=C1c2ccccc2C(=O)c2c(NC3CCCCC3)ccc(Nc3ccc(S(=O)(=O)O)cc3)c21 | > 100 | > 100 | > 100 | > 100 | > 100 | > 100 | 64.4 | > 100 | > 100 | > 100 |  |  |  |  |  |  |  |  |  | 
2 | CCCCCCCCCCCCCCNC(=O)Nc1ccc(Cl)c(Cl)c1 | 11.1 | > 100 | > 100 | 26.3 | > 100 | > 100 | 6.15 | > 30 | 6.31 | 8.33 | 2.5 | 2.79 | 3.72 | 2.86 | 3.59 | 3.17 | 1.97 | 3.17 | 2.47 | 2.82
3 | CN(C)c1ccc(-c2cc(-c3ccc(Nc4nc(Nc5ccc(Cl)cc5)nc(Nc5ccc(Cl)cc5)n4)cc3)nc(N)c2C#N)cc1 | 36.5 | > 100 | > 100 | > 100 | > 100 | > 100 | > 100 | > 100 | 92 | > 100 | 2.59 | 9.86 | 40.3 | 30.5 | 34.6 | 13.1 | > 100 | 7.59 | 13.6 | 27.9
4 | CCC(c1ccccc1)c1noc(CCN(CC)CC)n1 (configuration not stated) | > 86.3 | 40.7 | > 100 | > 100 | > 64.3 | 31.3 | > 91.3 | 76.2 | > 56.2 | > 78.8 | 28.5 | 16.4 | 35.1 | 63.3 | 22.7 | 16.1 | > 47 | 13.1 | 25.3 | 23.8
5 | ClCCOCCn1cnc2c(Cl)nc(Cl)nc21 | > 100 | 35.5 | 20.3 | 29.1 | 21.9 | 27.5 | 27.7 | 36.2 | 15.4 | 24.1 | 11.7 | 17.3 | 6.82 | 12.8 | 10.2 | 14.4 | 12.5 | 14.2 | 4.68 | 10.9
6 | CC(C)[C@@H]1CC[C@]2(CO2)[C@@H]2C(=O)OCC(C(=O)O)=C[C@H]21 | 2.85 | > 100 | > 52.5 | 8.41 | > 100 | > 100 | > 100 | > 100 | > 100 | 6.72 | 0.319 | 0.44 | 0.34 | 1.35 | 0.471 | 0.43 | 5.17 | 0.381 | 0.47 | 0.355
7 | CCCCCCCCCCCC[C@@H](O)[C@H]1CC[C@H]([C@H](O)CC[C@H](O)[C@@H]2CC[C@@H](CCCCCCCC3=C[C@H](C)OC3=O)O2)O1 | > 50 | > 50 | > 50 | > 50 | > 50 | > 50 | > 50 | > 50 | > 50 | > 50 | 1.22 |  | 4.21 | 0.164 | > 50 | 2.51 | 1.69 | 4.45 | 2.78 | 1.49
8 | COCCN(CCOC)c1nc(-c2ccccc2)nc2ccccc12 | > 100 | > 100 | 62.4 | 54.7 | > 100 |  | > 100 | > 100 | > 100 | 55.8 | 4.23 | 44.8 | 19.7 | 26.6 | 36.9 |  | 38.8 | 26.9 | 31.3 | 21.9
9 | Cc1cnc(C(=O)NNc2nc3sc4c(c3c(=O)[nH]2)C(C)CCC4)cn1 (configuration not stated) | > 100 | 12.6 | > 100 | 43 | 80.7 | 11 | 78.2 | > 100 | 17.1 | 26.6 | 0.671 | 0.449 | 0.891 | 2.25 | 1.43 | 0.55 | 1.19 | 2.75 | 0.506 | 3.25
10 | C=C(CN1CCc2[nH]c3ccc(F)cc3c2C1)c1ccc(C(=O)Nc2ccccc2N)cc1 | 11.9 |  | 8.36 | 12.6 | 3.94 | 11.4 | 19.7 | 87.8 | 6.84 | 4.07 | 2.52 |  | 3.03 | 2.22 | 1.66 | 3.33 | 5.06 | 3.76 | 2.08 | 1.6
11 | CC(=O)Oc1ccc(C2=Cc3ccc(OC(C)=O)cc3OC2C)cc1 (configuration not stated) | 22.5 | 81.4 | 30.6 | > 100 | 13.9 | > 100 | 13.5 | 60.5 | 15.3 | 15 | 0.525 | 14.2 | 3.44 | 5.3 | 3.27 | 2.29 | 2.38 | 12.7 | 3.33 | 0.63
12 | COc1cc(OC)c(OC)cc1/C=C/c1nc2ccccc2s1 | > 100 |  | > 100 | > 100 | > 100 | > 100 | > 100 | > 100 | > 100 | 15.1 |  |  |  |  |  |  |  |  |  | 
13 | COc1ccc(Nc2cnc3cc(N)cc(N)c3n2)cc1 | 89.7 | 48.5 | 39.8 | 7.65 | > 100 |  | 42.6 | 75.5 | 27.3 | 33.8 | 14.8 | 21.4 | 17.7 | 2.02 | 30.4 |  | 22 | 27 | 11.4 | 16.7
